Source: patent US20090163571A1, “PHARMACEUTICAL FOR USE IN THE TREATMENT OF URETEROLITHIASIS” (KISSEI PHARMACEUTICAL CO., LTD, priority 2005, published 2009)
Counter-ions that a name gives are not always drawn.

Columns and labels:
isolated hamster ureter = test: Inhibition of phenylephrine-induced contraction of isolated hamster ureter (organ bath); details: for pA2: against phenylephrine concentration-response curve
[1] = anesthetized dogs; compared with the compound of general formula (I); cited from earlier work

Row | Compound | pA2 (isolated hamster ureter) | inhibitory effect against phenylephrine induced ureteral contraction (shift of concentration-response curve) (isolated hamster ureter; 3×10^−10, 1×10^−9, 3×10^−9 mol/L, about 30 min pretreatment) | decrease of blood pressure [1]
1 | COc1ccccc1N1CCN(CCN2C(=O)CC3(CCCC3)CC2=O)CC1 [BMY-7378] | 5.75 |  | 
2 | C[C@H](Cc1cc2c(c(C(N)=O)c1)N(CCCO)CC2)NCCOc1ccccc1OCC(F)(F)F [Compound 1, (−)-1-(3-hydroxypropyl)-5-((2R)-2-{[2-((2-[(2,2,2-trifluoroethyl)oxy]phenyl)oxy)ethyl]amino}propyl)-2,3-dihydro-1H-indole-7-carboxamide] | 9.44 | caused concentration-dependently a parallel rightward shift of the concentration-response curve for phenylephrine | 
3 | COc1ccccc1N1CCN(CC(O)COc2cccc3ccccc23)CC1 (stereo not drawn) [naftopidil] | 6.54 |  | 
4 | CCOc1ccccc1OCCN[C@H](C)Cc1ccc(OC)c(S(N)(=O)=O)c1 [tamsulosin hydrochloride] | 9.85 |  | decreases blood pressure more strongly than the compound represented by the above general formula (I)
